Source: ChEMBL document CHEMBL6103626, “Structure-Based Design of New LSD1/EGFRL858R/T790M Dual Inhibitors for Treating EGFR Mutant NSCLC Cancers” (J Med Chem, 2025)
Activity calls are given as the source filed them. No cut-off for these calls is given here.

Legend:
[1] = Tmax in Sprague-Dawley rat at 40 mg/kg, po measured for 24 hrs by LC-MS/MS analysis; format: ADME, organism-based; details: in vivo
[2] = Oral bioavailability in Sprague-Dawley rat at 40 mg/kg measured for 24 hrs by LC-MS/MS analysis; format: ADME, organism-based; details: in vivo
[3] = cells; details: Homo sapiens, NCI-H1975, 72 h
[4] = AUC (infinity) in Sprague-Dawley rat at 10 mg/kg, iv measured for 24 hrs by LC-MS/MS analysis; format: ADME, organism-based; details: in vivo
[5] = tested on: A-431; assay: Antiproliferative activity against human A-431 cells expressing wild-type EGFR measured after 72 hrs by SRB assay; details: A-431, 72 h
[6] = MRT (infinity) in Sprague-Dawley rat at 40 mg/kg, po measured for 24 hrs by LC-MS/MS analysis; format: ADME, organism-based; details: in vivo
[7] = Toxicity in athymic nude BALB/c mouse xenografted with human NCI-H1975 cells assessed as body weight loss at 3 mg/kg, po daily for 27 days; format: organism-based; details: in vivo, 648 h, time 27 day
[8] = tested on: Osimertinib-resistant NCI-H1975 cell; assay: Antiproliferative activity against human Osimertinib-resistant NCI-H1975 cells measured after 72 hrs by SRB assay
[9] = MRT (infinity) in Sprague-Dawley rat at 10 mg/kg, iv measured for 24 hrs by LC-MS/MS analysis; format: ADME, organism-based; details: in vivo
[10] = Half life in Sprague-Dawley rat at 40 mg/kg, po measured for 24 hrs by LC-MS/MS analysis; format: ADME, organism-based; details: in vivo
[11] = tested on: PC-9; assay: Antiproliferative activity against human PC-9 cells expressing EGFR del19 mutant measured after 72 hrs by SRB assay; details: PC-9, 72 h
[12] = Clearance in Sprague-Dawley rat at 10 mg/kg, iv measured for 24 hrs by LC-MS/MS analysis; format: ADME, organism-based; details: in vivo
[13] = AUClast in Sprague-Dawley rat at 10 mg/kg, iv measured for 24 hrs by LC-MS/MS analysis; format: ADME, organism-based; details: in vivo
[14] = Antiproliferative activity against human PC9 Gefitinib-resistant (GR) cells measured after 72 hrs by SRB assay; details: PC9 Gefitinib-resistant (GR) cell
[15] = MRTlast in Sprague-Dawley rat at 40 mg/kg, po measured for 24 hrs by LC-MS/MS analysis; format: ADME, organism-based; details: in vivo
[16] = AUClast in Sprague-Dawley rat at 40 mg/kg, po measured for 24 hrs by LC-MS/MS analysis; format: ADME, organism-based; details: in vivo
[17] = target: T1, LSD1/CoREST complex (Homo sapiens, UniProt O60341); assay: Inhibition of full-length recombinant LSD1 (123 to 852 residues)(unknown origin)/CoREST (305 to 482 residues)(unknown origin) extracted from Escherichia coli using H3K4me2 as substrate preincubated for 5 mins followed by substrate addition measured after 30 mins by HRP/Amplex Red based fluorescence assay; format: protein-complex assay
[18] = MRTlast in Sprague-Dawley rat at 10 mg/kg, iv measured for 24 hrs by LC-MS/MS analysis; format: ADME, organism-based; details: in vivo
[19] = Half life in Sprague-Dawley rat at 10 mg/kg, iv measured for 24 hrs by LC-MS/MS analysis; format: ADME, organism-based; details: in vivo
[20] = Antiproliferative activity against human PC9-OR cells measured after 72 hrs by SRB assay
[21] = Cmax in Sprague-Dawley rat at 40 mg/kg, po measured for 24 hrs by LC-MS/MS analysis; format: ADME, organism-based; details: in vivo
[22] = Volume of distribution at steady state in Sprague-Dawley rat at 10 mg/kg, iv measured for 24 hrs by LC-MS/MS analysis; format: ADME, organism-based; details: in vivo, read-out: Vdss
[23] = target: T1, LSD1/CoREST complex; assay: Non-competitive inhibition of LSD1/CoREST (unknown origin) using H3K4me2 as substrate incubated for 0.5 hrs by ELISA; format: protein-complex assay
[24] = Toxicity in athymic nude BALB/c mouse xenografted with human NCI-H1975 cells assessed as drug tolerance at 3 mg/kg, po daily for 27 days; format: organism-based; details: in vivo, 648 h, time 27 day
[25] = tested on: NCI-H1975; assay: Antitumor activity against human NCI-H1975 cells xenografted in athymic nude BALB/c mouse at 3 mg/kg, po daily for 27 days relative to control; format: functional; details: NCI-H1975, 648 h, time 27 day, read-out: TGI
[26] = AUC (infinity) in Sprague-Dawley rat at 40 mg/kg, po measured for 24 hrs by LC-MS/MS analysis; format: ADME, organism-based; details: in vivo
[27] = target: Lysine-specific histone demethylase 1A (Homo sapiens) (UniProt O60341); assay: Binding affinity to LSD1 in human NCI-H1975 cells assessed as increase in thermal stability incubated for 1 hr followed by 40 to 53 degreeC of heat exposure for 3 mins by CETSA; format: cell-based; details: tested as the 2H-labelled form
[28] = target: Lysine-specific histone demethylase 1A (Homo sapiens) (UniProt O60341); assay: Inhibition of LSD1 in human NCI-H1975 cells assessed as accumulation of H3K4me2 at 0.1 to 10 uM by Western blot analysis; format: cell-based; details: dose 0.1-10 µM, tested as the 2H-labelled form
[29] = tested on: Mus musculus; assay: In vivo inhibition of LSD1 in athymic nude BALB/c mouse xenografted with human NCI-H1975 cells assessed as H3K9me2 accumulation at 1.5 to 3 mg/kg, po daily for 27 days by Western blot analysis; format: functional, organism-based; details: dose 1.5-3 mg/kg, time 27.0 day, tested as the 2H-labelled form
[30] = target: T2, LSD1/CoREST complex (Homo sapiens) (UniProt O60341+Q9UKL0); assay: Reversible non-covalent inhibition of LSD1/CoREST (unknown origin) using H3K4me2 as substrate assessed as LSD1 activity recovery after LSD1-compound mixture dilution incubated for 1 hr by HRP/Amplex Red based fluorescence assay; format: protein-complex assay; details: tested as the 2H-labelled form
T2 sequence (Q9UKL0 whole entry, looked up, other chains not shown): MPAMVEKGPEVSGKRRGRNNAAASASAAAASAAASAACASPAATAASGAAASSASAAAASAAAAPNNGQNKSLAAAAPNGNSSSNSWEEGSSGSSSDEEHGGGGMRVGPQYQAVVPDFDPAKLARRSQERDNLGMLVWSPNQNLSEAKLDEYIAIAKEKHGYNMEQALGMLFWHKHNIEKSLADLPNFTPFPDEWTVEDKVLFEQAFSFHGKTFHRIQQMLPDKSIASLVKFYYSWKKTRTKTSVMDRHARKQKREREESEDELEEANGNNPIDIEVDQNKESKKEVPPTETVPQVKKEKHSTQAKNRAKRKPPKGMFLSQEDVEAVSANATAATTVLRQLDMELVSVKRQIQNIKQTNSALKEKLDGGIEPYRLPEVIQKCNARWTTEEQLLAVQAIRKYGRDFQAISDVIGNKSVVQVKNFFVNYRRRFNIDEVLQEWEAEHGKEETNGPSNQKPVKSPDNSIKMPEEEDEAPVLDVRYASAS

[31] = target: Lysine-specific histone demethylase 1A (Homo sapiens) (UniProt O60341); assay: Inhibition of LSD1 in human NCI-H1975 cells assessed as accumulation of H3K9me2 at 0.1 to 10 uM by Western blot analysis; format: cell-based; details: dose 0.1-10 µM, tested as the 2H-labelled form
[32] = target: T2, LSD1/CoREST complex (Homo sapiens); assay: Inhibition of full-length recombinant LSD1 (123 to 852 residues)(unknown origin)/CoREST (305 to 482 residues)(unknown origin) extracted from Escherichia coli using H3K4me2 as substrate at 1 uM preincubated for 5 mins followed by substrate addition measured after 30 mins by HRP/Amplex Red based fluorescence assay relative to control; format: protein-complex assay; details: time 35.0 min, tested as the 2H-labelled form
[33] = tested on: Mus musculus; assay: In vivo inhibition of EGFR in athymic nude BALB/c mouse xenografted with human NCI-H1975 cells assessed as decrease in ERK phosphorylation at 1.5 to 3 mg/kg, po daily for 27 days by Western blot analysis; format: functional, organism-based; details: dose 1.5-3 mg/kg, time 27.0 day, tested as the 2H-labelled form
[34] = target: T2, LSD1/CoREST complex (Homo sapiens); assay: Inhibition of full-length recombinant LSD1 (123 to 852 residues)(unknown origin)/CoREST (305 to 482 residues)(unknown origin) extracted from Escherichia coli using H3K4me2 as substrate at 10 uM preincubated for 5 mins followed by substrate addition measured after 30 mins by HRP/Amplex Red based fluorescence assay relative to control; format: protein-complex assay; details: time 35.0 min, tested as the 2H-labelled form
[35] = tested on: Mus musculus; assay: In vivo inhibition of EGFR phosphorylation in athymic nude BALB/c mouse xenografted with human NCI-H1975 cells at 1.5 to 3 mg/kg, po daily for 27 days by Western blot analysis; format: functional, organism-based; details: dose 1.5-3 mg/kg, time 27.0 day, tested as the 2H-labelled form
[36] = tested on: Mus musculus; assay: In vivo inhibition of LSD1 in athymic nude BALB/c mouse xenografted with human NCI-H1975 cells assessed as H3K4me2 accumulation at 1.5 to 3 mg/kg, po daily for 27 days by Western blot analysis; format: functional, organism-based; details: dose 1.5-3 mg/kg, time 27.0 day, tested as the 2H-labelled form
[37] = tested on: NCI-H1975; assay: Antitumor activity against human NCI-H1975 cells xenografted in athymic nude BALB/c mouse administered orally daily for 27 days; format: functional, cell-based; details: dose 1.5-3 mg/kg, route po, time 27.0 day, tested as the 2H-labelled form
[38] = target: Epidermal growth factor receptor (Homo sapiens, UniProt P00533, L858R/T790M); assay: Inhibition of EGFR L858R/T790M mutant (unknown origin) using Glu/Tyr as substrate incubated for 1 hr by ELISA
Sequence of Epidermal growth factor receptor (Homo sapiens, UniProt P00533, L858R/T790M) (P00533 25-1210 T790M/L858R limits assumed): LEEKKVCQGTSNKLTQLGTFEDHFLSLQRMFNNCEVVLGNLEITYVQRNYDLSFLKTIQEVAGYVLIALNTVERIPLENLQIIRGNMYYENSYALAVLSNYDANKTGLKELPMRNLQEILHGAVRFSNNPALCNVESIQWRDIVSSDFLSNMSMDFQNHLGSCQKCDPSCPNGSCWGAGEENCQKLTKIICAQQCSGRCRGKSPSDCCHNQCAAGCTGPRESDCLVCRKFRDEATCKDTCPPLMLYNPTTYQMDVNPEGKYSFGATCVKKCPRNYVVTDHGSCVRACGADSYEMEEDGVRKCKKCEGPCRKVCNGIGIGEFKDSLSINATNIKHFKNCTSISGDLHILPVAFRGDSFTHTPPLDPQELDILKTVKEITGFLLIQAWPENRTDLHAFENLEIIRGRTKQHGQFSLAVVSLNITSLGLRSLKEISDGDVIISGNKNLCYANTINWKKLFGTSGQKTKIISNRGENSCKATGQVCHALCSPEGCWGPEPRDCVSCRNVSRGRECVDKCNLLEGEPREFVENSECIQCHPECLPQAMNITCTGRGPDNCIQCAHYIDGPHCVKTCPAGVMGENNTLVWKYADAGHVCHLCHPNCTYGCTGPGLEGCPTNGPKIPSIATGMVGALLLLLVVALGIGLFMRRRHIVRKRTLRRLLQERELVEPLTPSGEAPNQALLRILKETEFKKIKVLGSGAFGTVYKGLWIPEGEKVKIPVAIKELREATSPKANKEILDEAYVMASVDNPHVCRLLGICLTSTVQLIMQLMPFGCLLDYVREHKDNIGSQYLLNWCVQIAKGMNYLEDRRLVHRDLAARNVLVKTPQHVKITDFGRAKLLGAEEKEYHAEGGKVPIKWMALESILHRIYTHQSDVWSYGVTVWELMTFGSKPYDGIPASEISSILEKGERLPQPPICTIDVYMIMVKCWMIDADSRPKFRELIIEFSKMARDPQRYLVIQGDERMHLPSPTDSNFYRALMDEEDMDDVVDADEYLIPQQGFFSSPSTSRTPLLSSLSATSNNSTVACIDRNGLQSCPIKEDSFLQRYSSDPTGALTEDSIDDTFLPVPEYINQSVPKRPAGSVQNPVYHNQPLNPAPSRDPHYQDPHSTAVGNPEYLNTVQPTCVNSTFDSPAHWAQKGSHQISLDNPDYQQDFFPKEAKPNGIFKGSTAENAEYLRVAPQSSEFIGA

[39] = target: Epidermal growth factor receptor (Homo sapiens, UniProt P00533); assay: Inhibition of wild-type EGFR (unknown origin) using Glu/Tyr as substrate incubated for 1 hr by ELISA
Sequence of Epidermal growth factor receptor (Homo sapiens, UniProt P00533) (P00533 whole entry): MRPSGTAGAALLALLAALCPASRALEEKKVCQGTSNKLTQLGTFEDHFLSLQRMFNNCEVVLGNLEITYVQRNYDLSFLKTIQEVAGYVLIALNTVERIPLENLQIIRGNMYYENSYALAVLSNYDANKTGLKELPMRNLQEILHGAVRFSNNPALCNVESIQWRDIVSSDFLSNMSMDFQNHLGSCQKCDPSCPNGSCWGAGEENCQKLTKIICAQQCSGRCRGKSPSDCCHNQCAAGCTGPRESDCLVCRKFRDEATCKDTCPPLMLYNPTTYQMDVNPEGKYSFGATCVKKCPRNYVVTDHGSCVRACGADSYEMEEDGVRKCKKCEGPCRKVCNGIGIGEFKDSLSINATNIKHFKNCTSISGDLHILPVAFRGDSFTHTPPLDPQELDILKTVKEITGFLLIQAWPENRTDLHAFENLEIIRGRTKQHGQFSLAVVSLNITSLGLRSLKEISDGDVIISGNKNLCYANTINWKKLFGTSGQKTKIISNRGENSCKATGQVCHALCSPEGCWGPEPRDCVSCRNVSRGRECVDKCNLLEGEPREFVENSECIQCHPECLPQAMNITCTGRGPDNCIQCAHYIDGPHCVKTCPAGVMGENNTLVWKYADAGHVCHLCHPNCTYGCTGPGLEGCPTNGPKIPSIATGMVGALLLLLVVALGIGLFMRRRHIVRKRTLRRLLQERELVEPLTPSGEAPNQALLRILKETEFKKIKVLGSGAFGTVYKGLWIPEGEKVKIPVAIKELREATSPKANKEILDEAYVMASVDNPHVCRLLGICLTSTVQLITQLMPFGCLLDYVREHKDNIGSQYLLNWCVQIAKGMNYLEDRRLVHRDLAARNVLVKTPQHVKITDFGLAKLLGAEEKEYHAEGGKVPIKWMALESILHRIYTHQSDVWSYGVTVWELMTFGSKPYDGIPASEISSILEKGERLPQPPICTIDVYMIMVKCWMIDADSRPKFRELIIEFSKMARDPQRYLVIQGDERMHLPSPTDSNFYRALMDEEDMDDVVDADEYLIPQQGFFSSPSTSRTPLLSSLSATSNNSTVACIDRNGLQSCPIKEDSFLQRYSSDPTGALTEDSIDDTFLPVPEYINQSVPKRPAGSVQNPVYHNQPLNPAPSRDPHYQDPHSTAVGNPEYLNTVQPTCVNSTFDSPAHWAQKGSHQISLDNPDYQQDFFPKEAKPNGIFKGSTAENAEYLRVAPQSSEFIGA

Structure (SMILES) | Tmax [1] [h] | bioavailability [2] [%] | IC50 [3] [nM] | AUC(0-inf) [4] [ng·h/mL] | IC50 [5] [nM] | Activity [7] | IC50 [8] [nM] | MRT inf [9] [h] | IC50 [11] [nM] | clearance [12] [mL/min/kg] | AUC(0-t) at 24 h [13] [ng·h/mL] | IC50 [14] [nM] | MRT last at 24 h [15] [h] | AUC(0-t) at 24 h [16] [ng·h/mL] | IC50 [17] [nM] | MRT last at 24 h [18] [h] | half-life [19] [h] | IC50 [20] [nM] | Cmax [21] [ng/mL] | Vd [22] [L/kg] | also measured
[2H]C([2H])([2H])n1cc(-c2ccnc(Nc3cc(NC(=O)C=C)c(N4CC[C@@H](N(C)C)C4)cc3OC)n2)c2ccccc21 | 5 | 65.1 | 1750 | 4220 | 2460 | Non-toxic | 8930 | 6.51 | 6810 | 39.8 | 4000 | 5350 | 6.76 | 10400 | 600 | 5.08 | 6.07 | 6730 | 724 | 15.5 | MRT inf [6]: 8.14 h; half-life [10]: 6.23 h; Ki [23]: 257 nM; Activity [24]: Non-toxic; inhibition in vivo at 3 mg/kg [25]: 60.4%; AUC(0-inf) [26]: 9720 ng·h/mL
C=CC(=O)Nc1cc(Nc2nccc(-c3cn(C)c4ccccc34)n2)c(OC)cc1N1CC[C@@H](N(C)C)C1 |  |  |  |  |  |  |  |  |  |  |  |  |  |  |  |  |  |  |  |  | Activity [27]: Active; inhibition [28]: Active; inhibition [29]: Active; inhibition [30]: Active; inhibition [31]: Active; inhibition [32]: 98.2%; inhibition [33]: Active; inhibition [34]: 100%; inhibition [35]: Active; inhibition [36]: Active; Activity [37]: Dose-dependent-effect
[2H]C([2H])([2H])n1cc(-c2ccnc(Nc3cc(NC(=O)C=C)c(N4CCC(C)(N)CC4)cc3OC)n2)c2ccccc21 | 6 | 59.6 | 70 | 4940 | 290 | Non-toxic | 1600 | 16 | 930 | 33.8 | 3740 | 1370 | 9.37 | 8840 | 8000 | 7.17 | 13 | 850 | 568 | 32.3 | IC50 [38]: 6.8 nM; IC50 [39]: 788 nM; Ki [23]: 2340 nM; Activity [24]: Non-toxic; inhibition in vivo at 3 mg/kg [25]: 51.3%
C=CC(=O)Nc1cc(Nc2nccc(-c3cn(C)c4ccccc34)n2)c(OC)cc1N1CCC(C)(N)CC1 |  |  |  |  |  |  |  |  |  |  |  |  |  |  |  |  |  |  |  |  | Activity [27]: Active; inhibition [28]: Active; inhibition [29]: Active; inhibition [30]: Active; inhibition [31]: Active; inhibition [32]: 36%; inhibition [33]: Active; inhibition [34]: 100%; inhibition [35]: Active; inhibition [36]: Active; Activity [37]: Dose-dependent-effect
